Experiments:
Format in all cases: in vivo
[1] = tested on: monochoria (Mo); assay: Test Example 1: herbicidal effects by flooded paddy field treatment; design: herbicidal effects, Mo (monochoria):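 0-5 growth inhibition grade; 5 = over 90%; 4 = 70-90%; 3 = 50-70%; 2 = 30-50%; 1 = 10-30%; 0 = under 10%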; settings: dose 100 g active ingredient per 10 ares, examined on the 21st day after treatment, standards of Table 44
Procedure: (§1) In a 100 cm^2 plastic pot, paddy field soil was filled and paddled. Then, seeds of barnyard grass (Eo) and monochoria (Mo) were sown, and water was introduced to a depth of 3 cm. Next day, a wettable powder prepared in accordance with Formulation Example 1 was diluted with water and dropwise applied to the water surface. The dose was 100 g of the active ingredient per 10 ares. Thereafter, cultivation was carried out in a green house, and on the 21st day after the treatment, the herbicidal effects were examined in accordance with the standards as identified in Table 44.

[2] = tested on: barnyard grass (Eo); assay: Test Example 4: selectivity for a crop plant by flooded paddy field treatment; design: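 0-5 growth inhibition grade; 5 = over 90%; 4 = 70-90%; 3 = 50-70%; 2 = 30-50%; 1 = 10-30%; 0 = under 10%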; settings: barnyard grass, dose 25 gai/10a, 21st day after treatment, index per Table 44
Procedure: as §1, with “pot, a” for “pot,”, “sown, and rice (Or) of second leaf stage was transplanted,” for “sown,”, “was 25” for “was 100”, “standards of” for “standards as identified in”

[3] = tested on: monochoria (Mo); assay: as above; design: scale not given here; settings: monochoria, dose 25 gai/10a, 21st day after treatment, index per Table 44
Procedure: as §1, with “pot, a” for “pot,”, “sown, and rice (Or) of second leaf stage was transplanted,” for “sown,”, “was 25” for “was 100”, “standards of” for “standards as identified in”

[4] = tested on: rice (Or); assay: as above; design: scale not given here; settings: rice transplanted at second leaf stage, dose 25 gai/10a, 21st day after treatment, index per Table 44
Procedure: as §1, with “pot, a” for “pot,”, “sown, and rice (Or) of second leaf stage was transplanted,” for “sown,”, “was 25” for “was 100”, “standards of” for “standards as identified in”

[5] = tested on: barnyard grass (Eo); assay: Test Example 1: herbicidal effects by flooded paddy field treatment; design: herbicidal effects, Eo (barnyard grass):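 0-5 growth inhibition grade; 5 = over 90%; 4 = 70-90%; 3 = 50-70%; 2 = 30-50%; 1 = 10-30%; 0 = under 10%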; settings: dose 100 g active ingredient per 10 ares, examined on the 21st day after treatment, standards of Table 44
Procedure: as §1

[6] = tested on: barnyard grass (Ec); assay: Test Example 2: herbicidal effects by upland soil treatment; design: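 0-5 growth inhibition grade; 5 = over 90%; 4 = 70-90%; 3 = 50-70%; 2 = 30-50%; 1 = 10-30%; 0 = under 10%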; settings: dose 100 g active ingredient per 10 ares, examined on the 21st day after treatment
Procedure: In a 80 cm^2 plastic pot, upland soil was filled, and seeds of barnyard grass (Ec) and green foxtail (Se) were sown and covered with soil. A wettable powder prepared in accordance with Formulation Example 1 was diluted with water and uniformly applied to the soil surface by means of a small size spray at a rate of 100 l per 10 ares, so that the dose of the active ingredient would be 100 g per 10 ares. Thereafter, cultivation was carried out in a green house, and on the 21st day after the treatment, the herbicidal effects were examined in accordance with the standards as identified in Table 44.

SMILES | herbicidal effects, Mo (monochoria) [1] | Eo (herbicidal effect index) [2] | Mo (herbicidal effect index) [3] | Or (herbicidal effect index on crop) [4] | herbicidal effects, Eo (barnyard grass) [5] | Ec (herbicidal effects, index) [6]
Cc1ccc(C(C)(C)C(=O)N(C)C(c2cncnc2C(F)(F)F)C(C)C)cc1 (racemic) [1-175] | 5 | 5 | 5 | 0 | 5 | –
CC(C)C(c1cncnc1C(F)(F)F)N(C)C(=O)CSc1ccc(Cl)cc1 (racemic) [1-183] | 5 | 5 | 5 | 0 | 5 | –
CC(c1cncnc1C(C)(C)C)N(C)C(=O)Cc1ccccc1 (racemic) [1-188] | 5 | 5 | 5 | 0 | 5 | –
CC(c1cncnc1C(C)(C)C)N(C)C(=O)Cc1ccc(F)cc1 (racemic) [1-189] | 5 | 5 | 5 | 0 | 5 | –
CC(C)C(c1cncnc1-c1ccccc1)N(C)C(=O)Cc1ccc(Cl)cc1 (racemic) [1-324] | 5 | 5 | 5 | 1 | 5 | –
CCOC(=O)CN(C(=O)Cc1ccccc1)C(c1cncnc1C(F)(F)F)C(C)C (racemic) [1-476] | 5 | – | – | – | 5 | 5
CON=Cc1ncncc1C(C(C)C)N(C)C(=O)Cc1ccc(C)cc1 (racemic) [1-499] | 5 | – | – | – | 5 | 5
CC(C)C(c1cncnc1C=NO)N(C)C(=O)Cc1ccc(Cl)cc1 (racemic) [1-502] | 5 | – | – | – | 5 | 4
C=CCN(C(=O)Cc1ccccc1)C(c1cncnc1C(F)(F)F)C(C)C (racemic) [1-518] | 5 | – | – | – | 5 | 5
CC(C)C(c1cncnc1C=O)N(C)C(=O)Cc1ccc(Cl)cc1 (racemic) [1-524] | 5 | – | – | – | 5 | 5
Cc1ccccc1C(c1cncnc1C(F)(F)F)N(C)C(=O)Cc1ccccc1 (racemic) [1-550] | 5 | – | – | – | 5 | 5
CN(C(=O)Cc1ccc(F)cc1)C(c1ccc(F)cc1F)c1cncnc1C(F)(F)F (racemic) [1-555] | 5 | – | – | – | 5 | 5
C#CCN(C(=O)Cc1ccc(C)cc1)C(c1cncnc1CC)C(C)C (racemic) [1-561] | 5 | – | – | – | 5 | 5
CC(C)C(c1cncnc1C(F)(F)Cl)N(C)C(=O)Oc1ccc([N+](=O)[O-])cc1 (racemic) [1-640] | 5 | – | – | – | 5 | 4
CC(C)C(c1cncnc1C(F)(F)Cl)N(C)C(=S)Oc1ccccc1 (racemic) [1-641] | 5 | – | – | – | 5 | 5
CC(C)C(c1cncnc1C(F)(F)F)N(C)C(=O)Cc1cccs1 (racemic) [2-6] | 5 | – | – | – | 5 | 5
CCN(C(=O)Cc1cccs1)C(c1cncnc1C(F)(F)F)C(C)C (racemic) [2-9] | 5 | – | – | – | 5 | 5

SMILES | herbicidal effects, Mo (monochoria) [1] | Eo (herbicidal effect index) [2] | Mo (herbicidal effect index) [3] | Or (herbicidal effect index on crop) [4] | herbicidal effects, Eo (barnyard grass) [5] | Ec (herbicidal effects, index) [6]
CCN(C(=O)Cc1ccsc1)C(c1cncnc1C(F)(F)F)C(C)C (racemic) [2-10] | 5 | – | – | – | 5 | 5
CN(C(=O)Cc1cccs1)C(c1cncnc1C(F)(F)F)C(C)(C)C (racemic) [2-13] | 5 | – | – | – | 5 | 5
CN(C(=O)Cc1ccsc1)C(c1cncnc1C(F)(F)F)C(C)(C)C (racemic) [2-14] | 5 | – | – | – | 5 | 5
CC(C)c1ncncc1C(C(C)C)N(C)C(=O)Cc1ccsc1 (racemic) [2-24] | 5 | – | – | – | 5 | 5
CC(C)C(c1cncnc1C(F)(F)F)N(C)C(=O)COc1cncc(Cl)c1 (racemic) [2-44] | 5 | – | – | – | 5 | 5
CC(C)CC(c1cncnc1C(F)(F)F)N(C)C(=O)Cc1ccsc1 (racemic) [2-52] | 5 | – | – | – | 5 | 5
Cc1ccc(CC(=O)N(C)C(c2cncnc2C(F)(F)F)C2(C)CC2)s1 (racemic) [2-59] | 5 | – | – | – | 5 | 5
CC(C)C(c1cncnc1C(F)(F)F)N(C)C(=O)N(C)c1ccsc1 (racemic) [2-63] | 5 | – | – | – | 5 | 5
CC(C)C(c1cncnc1C(F)(F)F)N(C)C(=O)N(C)C1CCCCC1 (racemic) [2-72] | 5 | – | – | – | 5 | 5
COCc1ncncc1C(C(C)C)N(C)C(=O)Cc1ccc(Cl)s1 (racemic) [2-77] | 5 | – | – | – | 5 | 5
CN(C(=O)Cc1ccc(Cl)cc1F)C(c1cncnc1C(F)(F)F)C(C)(C)C (racemic) [Compound 1-249] | 5 | – | – | – | 5 | 5
CC(C)c1ncncc1C(C(C)C)N(C)C(=O)Cc1ccc(Cl)cc1F (racemic) [Compound 1-254] | 5 | – | – | – | 5 | 5
CN(C(=O)Cc1cccc(F)c1)C(c1cncnc1C(F)(F)F)C(C)(C)C (racemic) [Compound 1-265] | 5 | – | – | – | 5 | 5
CN(C(=O)Cc1cccc(F)c1)C(c1ccccc1)c1cncnc1C(F)(F)F (racemic) [Compound 1-266] | 5 | – | – | – | 5 | 5
CN(C(=O)Cc1ccc(F)cc1F)C(c1cncnc1C(F)(F)F)C(C)(C)C (racemic) [Compound 1-273] | 5 | – | – | – | 5 | 5
CN(C(=O)Cc1ccc(F)cc1F)C(c1ccccc1)c1cncnc1C(F)(F)F (racemic) [Compound 1-274] | 5 | – | – | – | 5 | 5

From US6806230B1, “Pyrimidine derivatives and herbicides containing them” (Kumiai Chemical Industry Co., Ltd., priority 1999, dated 2004)
